US12595230B2, “Substituted 6,7-dihydro-5H-benzo[7]annulene compounds and their derivatives, processes for their preparation and therapeutic uses thereof” (Sanofi, priority 2020, dated 2026)

Target: T1, ERα (Homo sapiens, UniProt P03372)
T1 construct: host or cells: MCF7
T1 sequence (P03372 1-595): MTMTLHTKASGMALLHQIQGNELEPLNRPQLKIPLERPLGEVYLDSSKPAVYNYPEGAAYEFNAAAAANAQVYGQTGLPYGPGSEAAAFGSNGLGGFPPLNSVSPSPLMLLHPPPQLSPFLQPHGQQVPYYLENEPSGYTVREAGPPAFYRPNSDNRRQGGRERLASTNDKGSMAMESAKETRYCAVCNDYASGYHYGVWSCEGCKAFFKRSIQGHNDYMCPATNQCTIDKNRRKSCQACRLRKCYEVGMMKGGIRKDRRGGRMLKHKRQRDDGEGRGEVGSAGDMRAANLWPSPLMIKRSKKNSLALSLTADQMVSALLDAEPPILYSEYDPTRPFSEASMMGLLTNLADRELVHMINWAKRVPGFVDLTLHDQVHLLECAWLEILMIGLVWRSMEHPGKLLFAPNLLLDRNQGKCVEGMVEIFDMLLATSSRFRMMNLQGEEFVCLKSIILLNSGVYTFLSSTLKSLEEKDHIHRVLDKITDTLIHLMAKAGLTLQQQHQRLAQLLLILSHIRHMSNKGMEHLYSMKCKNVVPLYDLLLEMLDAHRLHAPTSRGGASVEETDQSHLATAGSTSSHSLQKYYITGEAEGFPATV
Test: Estrogen receptor degradation activity: breast cancer cell ERα in cell western assay (MCF7 cells)
Assay type: cell-based
Settings: for % Degradation At 0.3 μM: 4 hours, relative to fulvestrant 0.1 μM positive control; for DC50: 4 hours post compound addition, concentration which degrades 50% of the estrogen receptor, read-out: Degradation IC50
Method in brief: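 Compounds were applied to MCF7 cells in stripped-serum, phenol red-free medium for 4 h at final 0.3–0.0000018 μM, with fulvestrant (0.1 μM) as control. Value: IC50 (nM) for 50% ERα degradation.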

SMILES	% Degradation At 0.3 μM [%]	DC50 [pM]
COc1ccc(C2=C(c3ccc(CC4CN(CCCF)C4)cc3)c3ccc(C(=O)O)cc3CCC2)cn1 [Example 18, 9-(4-((1-(3-fluoropropyl)azetidin-3-yl)methyl)phenyl)-8-(6-methoxypyridin-3-yl)-6,7-dihydro-5H-benzo[7]annulene-3-carboxylic acid]	95	1600
COc1cc(C2=C(c3ccc(CC4CN(CCCF)C4)cc3)c3ccc(C(=O)O)cc3CCC2)ccn1 [Example 21, 9-(4-((1-(3-fluoropropyl)azetidin-3-yl)methyl)phenyl)-8-(2-methoxypyridin-4-yl)-6,7-dihydro-5H-benzo[7]annulene-3-carboxylic acid]	89	2100
COc1ccc(C2=C(c3ccc(CC4CN(CCCF)C4)cc3)c3ccc(C(=O)O)cc3CCC2)c(Cl)c1 [Example 24, 8-(2-chloro-4-methoxyphenyl)-9-(4-((1-(3-fluoropropyl)azetidin-3-yl)methyl)phenyl)-6,7-dihydro-5H-benzo[7]annulene-3-carboxylic acid]	92	400
O=C(O)c1ccc2c(c1)CCCC(c1ccc(Cl)cc1C(F)(F)F)=C2c1ccc(CC2CN(CCCF)C2)cc1 [Example 27, 8-(4-chloro-2-(trifluoromethyl)phenyl)-9-(4-((1-(3-fluoropropyl)azetidin-3-yl)methyl)phenyl)-6,7-dihydro-5H-benzo[7]annulene-3-carboxylic acid]	94	500
Cc1c(F)cccc1C1=C(c2ccc(CC3CN(CCCF)C3)cc2)c2ccc(C(=O)O)cc2CCC1 [Example 28, 8-(3-fluoro-2-methylphenyl)-9-(4-((1-(3-fluoropropyl)azetidin-3-yl)methyl)phenyl)-6,7-dihydro-5H-benzo[7]annulene-3-carboxylic acid]	93	400
Cc1cccc(C2=C(c3ccc(CC4CN(CCCF)C4)cc3)c3ccc(C(=O)O)cc3CCC2)c1Cl [Example 30, 8-(2-chloro-3-methylphenyl)-9-(4-((1-(3-fluoropropyl)azetidin-3-yl)methyl)phenyl)-6,7-dihydro-5H-benzo[7]annulene-3-carboxylic acid]	94	400
O=C(O)c1ccc2c(c1)CCCC(c1cccc(Cl)c1F)=C2c1ccc(CC2CN(CCCF)C2)cc1 [Example 32, 8-(3-chloro-2-fluorophenyl)-9-(4-((1-(3-fluoropropyl)azetidin-3-yl)methyl)phenyl)-6,7-dihydro-5H-benzo[7]annulene-3-carboxylic acid]	94	600
O=C(O)c1ccc2c(c1)CCCC(c1ccccc1F)=C2c1ccc(CC2CN(CCCF)C2)cc1 [Example 35, 8-(2-fluorophenyl)-9-(4-((1-(3-fluoropropyl)azetidin-3-yl)methyl)phenyl)-6,7-dihydro-5H-benzo[7]annulene-3-carboxylic acid]	91	400
COc1cc(F)ccc1C1=C(c2ccc(CC3CN(CCCF)C3)cc2)c2ccc(C(=O)O)cc2CCC1 [Example 36, 8-(4-fluoro-2-methoxyphenyl)-9-(4-((1-(3-fluoropropyl)azetidin-3-yl)methyl)phenyl)-6,7-dihydro-5H-benzo[7]annulene-3-carboxylic acid]	89	600

These reach a lower DC50. Values come first.

% Degradation At 0.3 μM [%]	DC50 [pM]	SMILES
90	300	Cc1cc(C(F)(F)F)ccc1C1=C(c2ccc(CC3CN(CCCF)C3)cc2)c2ccc(C(=O)O)cc2CCC1 [Example 17, 9-(4-((1-(3-fluoropropyl)azetidin-3-yl)methyl)phenyl)-8-(2-methyl-4-(trifluoromethyl)phenyl)-6,7-dihydro-5H-benzo[7]annulene-3-carboxylic acid]
91	300	O=C(O)c1ccc2c(c1)CCCC(c1cccc(Cl)c1Cl)=C2c1ccc(CC2CN(CCCF)C2)cc1 [Example 19, 8-(2,3-dichlorophenyl)-9-(4-((1-(3-fluoropropyl)azetidin-3-yl)methyl)phenyl)-6,7-dihydro-5H-benzo[7]annulene-3-carboxylic acid]
91	300	Cc1cc(OC(F)F)ccc1C1=C(c2ccc(CC3CN(CCCF)C3)cc2)c2ccc(C(=O)O)cc2CCC1 [Example 20, 8-(4-(difluoromethoxy)-2-methylphenyl)-9-(4-((1-(3-fluoropropyl)azetidin-3-yl)methyl)phenyl)-6,7-dihydro-5H-benzo[7]annulene-3-carboxylic acid]
92	300	O=C(O)c1ccc2c(c1)CCCC(c1cccc(F)c1F)=C2c1ccc(CC2CN(CCCF)C2)cc1 [Example 22, 8-(2,3-difluorophenyl)-9-(4-((1-(3-fluoropropyl)azetidin-3-yl)methyl)phenyl)-6,7-dihydro-5H-benzo[7]annulene-3-carboxylic acid]
91	200	O=C(O)c1ccc2c(c1)CCCC(c1ccccc1C(F)(F)F)=C2c1ccc(CC2CN(CCCF)C2)cc1 [Example 23, 9-(4-((1-(3-fluoropropyl)azetidin-3-yl)methyl)phenyl)-8-(2-(trifluoromethyl)phenyl)-6,7-dihydro-5H-benzo[7]annulene-3-carboxylic acid]
91	300	Cc1cc(Cl)ccc1C1=C(c2ccc(CC3CN(CCCF)C3)cc2)c2ccc(C(=O)O)cc2CCC1 [Example 25, 8-(4-chloro-2-methylphenyl)-9-(4-((1-(3-fluoropropyl)azetidin-3-yl)methyl)phenyl)-6,7-dihydro-5H-benzo[7]annulene-3-carboxylic acid]
92	300	O=C(O)c1ccc2c(c1)CCCC(c1ccc(F)cc1C(F)(F)F)=C2c1ccc(CC2CN(CCCF)C2)cc1 [Example 26, 8-(4-fluoro-2-(trifluoromethyl)phenyl)-9-(4-((1-(3-fluoropropyl)azetidin-3-yl)methyl)phenyl)-6,7-dihydro-5H-benzo[7]annulene-3-carboxylic acid]
89	300	O=C(O)c1ccc2c(c1)CCCC(c1c(F)cccc1C(F)(F)F)=C2c1ccc(CC2CN(CCCF)C2)cc1 [Example 31, 8-(2-fluoro-6-(trifluoromethyl)phenyl)-9-(4-((1-(3-fluoropropyl)azetidin-3-yl)methyl)phenyl)-6,7-dihydro-5H-benzo[7]annulene-3-carboxylic acid]
89	200	Cc1cc(F)ccc1C1=C(c2ccc(CC3CN(CCCF)C3)cc2)c2ccc(C(=O)O)cc2CCC1 [Example 33, 8-(4-fluoro-2-methylphenyl)-9-(4-((1-(3-fluoropropyl)azetidin-3-yl)methyl)phenyl)-6,7-dihydro-5H-benzo[7]annulene-3-carboxylic acid]
79	200	O=C(O)c1ccc2c(c1)CCCC(c1c(Cl)cccc1C(F)(F)F)=C2c1ccc(CC2CN(CCCF)C2)cc1 [Example 34, 8-(2-chloro-6-(trifluoromethyl)phenyl)-9-(4-((1-(3-fluoropropyl)azetidin-3-yl)methyl)phenyl)-6,7-dihydro-5H-benzo[7]annulene-3-carboxylic acid]
